Target: T1, T1R2/T1R3 taste receptor (Homo sapiens, UniProt Q8TE23)
T1 sequence (Q8TE23 20-839): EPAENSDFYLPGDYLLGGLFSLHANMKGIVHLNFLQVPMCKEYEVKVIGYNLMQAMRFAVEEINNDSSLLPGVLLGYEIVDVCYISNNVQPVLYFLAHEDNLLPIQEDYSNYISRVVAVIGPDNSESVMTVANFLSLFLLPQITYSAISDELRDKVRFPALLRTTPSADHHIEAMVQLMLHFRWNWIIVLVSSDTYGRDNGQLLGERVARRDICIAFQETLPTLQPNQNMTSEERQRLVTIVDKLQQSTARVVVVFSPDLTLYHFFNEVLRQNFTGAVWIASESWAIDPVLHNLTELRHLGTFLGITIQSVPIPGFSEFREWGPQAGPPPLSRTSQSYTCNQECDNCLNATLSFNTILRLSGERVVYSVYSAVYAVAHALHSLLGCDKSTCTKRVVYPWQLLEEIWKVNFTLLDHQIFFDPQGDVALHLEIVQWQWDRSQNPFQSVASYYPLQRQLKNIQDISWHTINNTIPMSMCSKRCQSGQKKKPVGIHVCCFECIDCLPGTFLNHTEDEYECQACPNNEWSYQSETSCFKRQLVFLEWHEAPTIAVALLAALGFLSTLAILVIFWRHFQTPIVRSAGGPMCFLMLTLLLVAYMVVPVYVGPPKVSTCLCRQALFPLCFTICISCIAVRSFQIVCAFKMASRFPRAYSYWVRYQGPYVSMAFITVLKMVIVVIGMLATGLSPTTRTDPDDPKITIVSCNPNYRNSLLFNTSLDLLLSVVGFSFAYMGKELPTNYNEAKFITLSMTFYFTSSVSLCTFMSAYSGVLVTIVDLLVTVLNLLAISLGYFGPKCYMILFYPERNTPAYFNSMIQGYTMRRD
T1 sequence (Q7RTX0 21-852 partner): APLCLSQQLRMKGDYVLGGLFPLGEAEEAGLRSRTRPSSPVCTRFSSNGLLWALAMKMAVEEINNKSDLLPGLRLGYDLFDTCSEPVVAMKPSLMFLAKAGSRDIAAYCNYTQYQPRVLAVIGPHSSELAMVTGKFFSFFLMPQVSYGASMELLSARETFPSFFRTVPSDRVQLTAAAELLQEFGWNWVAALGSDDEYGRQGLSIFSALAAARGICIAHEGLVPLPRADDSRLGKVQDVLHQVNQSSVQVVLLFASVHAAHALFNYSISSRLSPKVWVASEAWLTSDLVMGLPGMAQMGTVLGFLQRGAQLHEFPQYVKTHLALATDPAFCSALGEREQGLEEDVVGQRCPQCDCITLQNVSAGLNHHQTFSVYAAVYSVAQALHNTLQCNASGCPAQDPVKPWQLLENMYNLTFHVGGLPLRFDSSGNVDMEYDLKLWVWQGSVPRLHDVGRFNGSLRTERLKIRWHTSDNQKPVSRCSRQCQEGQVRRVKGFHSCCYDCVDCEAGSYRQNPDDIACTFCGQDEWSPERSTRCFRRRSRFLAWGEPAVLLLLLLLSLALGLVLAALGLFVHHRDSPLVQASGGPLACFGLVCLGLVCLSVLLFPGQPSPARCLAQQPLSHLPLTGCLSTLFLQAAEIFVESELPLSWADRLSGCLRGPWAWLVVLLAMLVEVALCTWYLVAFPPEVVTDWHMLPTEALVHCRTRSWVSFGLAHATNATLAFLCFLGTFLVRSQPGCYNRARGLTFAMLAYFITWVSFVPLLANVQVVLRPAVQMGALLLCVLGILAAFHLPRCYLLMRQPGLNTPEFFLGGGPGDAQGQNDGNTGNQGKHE
Assay: Receptor-based assay: sweetener EC50 alone and with test compound (enhancement ratio)
Type: cell-based
Conditions: for Fructose Enhancement EC50 Ratio: sweetener fructose; for Sucralose Enhancement EC50 Ratio: sweetener sucralose; for Sucrose Enhancement EC50 Ratio: sweetener sucrose
How it was run: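 Sucrose, sucralose or fructose EC50 measured on human T1R2/T1R3, alone and with 3, 10 or 50 μM test compound. Enhancement is the EC50 ratio without/with compound, binned A >20, B 10-20, C >1 to <10.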

SMILES | Fructose Enhancement EC50 Ratio (10 μM test compound) | Fructose Enhancement EC50 Ratio (50 μM test compound) | Sucralose Enhancement EC50 Ratio (10 μM test compound) | Sucralose Enhancement EC50 Ratio (50 μM test compound) | Sucrose Enhancement EC50 Ratio (3 μM test compound) | Sucrose Enhancement EC50 Ratio (10 μM test compound) | Sucrose Enhancement EC50 Ratio (50 μM test compound)
NC1=NS(=O)(=O)Nc2cccc(OC[C@H]3CCCN(c4ccc(C(=O)N5CCCCC5)cn4)C3)c21 [Compound 513] | C (A “C” value indicates an enhancement ratio greater than 1 and less than 10) | C (A “C” value indicates an enhancement ratio greater than 1 and less than 10) | A (An “A” value indicates an enhancement ratio of greater than 20) | A (An “A” value indicates an enhancement ratio of greater than 20) | C (A “C” value indicates an enhancement ratio greater than 1 and less than 10) | C (A “C” value indicates an enhancement ratio greater than 1 and less than 10) | C (A “C” value indicates an enhancement ratio greater than 1 and less than 10)
NC1=NS(=O)(=O)Nc2cccc(OC[C@H]3CCCN(c4ccc(C(=O)N5CCOCC5)cn4)C3)c21 [Compound 514] | C (A “C” value indicates an enhancement ratio greater than 1 and less than 10) | C (A “C” value indicates an enhancement ratio greater than 1 and less than 10) | A (An “A” value indicates an enhancement ratio of greater than 20) | B (A “B” value indicates an enhancement ratio from 10 to 20) | C (A “C” value indicates an enhancement ratio greater than 1 and less than 10) | C (A “C” value indicates an enhancement ratio greater than 1 and less than 10) | C (A “C” value indicates an enhancement ratio greater than 1 and less than 10)
CC(C)CNC(=O)c1ccc(N2CCC[C@H](COc3cccc4c3C(N)=NS(=O)(=O)N4)C2)nc1 [Compound 515] | C (A “C” value indicates an enhancement ratio greater than 1 and less than 10) | C (A “C” value indicates an enhancement ratio greater than 1 and less than 10) | A (An “A” value indicates an enhancement ratio of greater than 20) | A (An “A” value indicates an enhancement ratio of greater than 20) | C (A “C” value indicates an enhancement ratio greater than 1 and less than 10) | C (A “C” value indicates an enhancement ratio greater than 1 and less than 10) | C (A “C” value indicates an enhancement ratio greater than 1 and less than 10)
NC1=NS(=O)(=O)Nc2cccc(OC[C@H]3CCCN(c4ccc(C(=O)NCC5CC5)cn4)C3)c21 [Compound 516] |  | C (A “C” value indicates an enhancement ratio greater than 1 and less than 10) | A (An “A” value indicates an enhancement ratio of greater than 20) | A (An “A” value indicates an enhancement ratio of greater than 20) | C (A “C” value indicates an enhancement ratio greater than 1 and less than 10) | C (A “C” value indicates an enhancement ratio greater than 1 and less than 10) | C (A “C” value indicates an enhancement ratio greater than 1 and less than 10)
NC1=NS(=O)(=O)Nc2cccc(OC[C@H]3CCCN(c4ccc(C(=O)NCC5CCCCC5)cn4)C3)c21 [Compound 517] |  |  | C (A “C” value indicates an enhancement ratio greater than 1 and less than 10) | B (A “B” value indicates an enhancement ratio from 10 to 20) | C (A “C” value indicates an enhancement ratio greater than 1 and less than 10) | C (A “C” value indicates an enhancement ratio greater than 1 and less than 10) | C (A “C” value indicates an enhancement ratio greater than 1 and less than 10)
CNC(=O)c1ccnc(N2CCC[C@H](COc3cccc4c3C(N)=NS(=O)(=O)N4)C2)c1 [Compound 600] |  |  | A (An “A” value indicates an enhancement ratio of greater than 20) | A (An “A” value indicates an enhancement ratio of greater than 20) | C (A “C” value indicates an enhancement ratio greater than 1 and less than 10) |  | B (A “B” value indicates an enhancement ratio from 10 to 20)
CCNC(=O)c1ccnc(N2CCC[C@H](COc3cccc4c3C(N)=NS(=O)(=O)N4)C2)c1 [Compound 601] | C (A “C” value indicates an enhancement ratio greater than 1 and less than 10) | C (A “C” value indicates an enhancement ratio greater than 1 and less than 10) |  |  | C (A “C” value indicates an enhancement ratio greater than 1 and less than 10) | C (A “C” value indicates an enhancement ratio greater than 1 and less than 10) | A (An “A” value indicates an enhancement ratio of greater than 20)
CCCNC(=O)c1ccnc(N2CCC[C@H](COc3cccc4c3C(N)=NS(=O)(=O)N4)C2)c1 [Compound 602] | C (A “C” value indicates an enhancement ratio greater than 1 and less than 10) | C (A “C” value indicates an enhancement ratio greater than 1 and less than 10) | A (An “A” value indicates an enhancement ratio of greater than 20) | A (An “A” value indicates an enhancement ratio of greater than 20) | C (A “C” value indicates an enhancement ratio greater than 1 and less than 10) | B (A “B” value indicates an enhancement ratio from 10 to 20) | 
NC1=NS(=O)(=O)Nc2cccc(OC[C@H]3CCCN(c4cc(C(=O)NCCO)ccn4)C3)c21 [Compound 603] | C (A “C” value indicates an enhancement ratio greater than 1 and less than 10) | C (A “C” value indicates an enhancement ratio greater than 1 and less than 10) | A (An “A” value indicates an enhancement ratio of greater than 20) |  | C (A “C” value indicates an enhancement ratio greater than 1 and less than 10) | B (A “B” value indicates an enhancement ratio from 10 to 20) | C (A “C” value indicates an enhancement ratio greater than 1 and less than 10)
COCCNC(=O)c1ccnc(N2CCC[C@H](COc3cccc4c3C(N)=NS(=O)(=O)N4)C2)c1 [Compound 604] |  | C (A “C” value indicates an enhancement ratio greater than 1 and less than 10) | A (An “A” value indicates an enhancement ratio of greater than 20) |  |  |  | B (A “B” value indicates an enhancement ratio from 10 to 20)
CN(C)CCNC(=O)c1ccnc(N2CCC[C@H](COc3cccc4c3C(N)=NS(=O)(=O)N4)C2)c1 [Compound 605] | C (A “C” value indicates an enhancement ratio greater than 1 and less than 10) | C (A “C” value indicates an enhancement ratio greater than 1 and less than 10) | A (An “A” value indicates an enhancement ratio of greater than 20) | A (An “A” value indicates an enhancement ratio of greater than 20) | C (A “C” value indicates an enhancement ratio greater than 1 and less than 10) | C (A “C” value indicates an enhancement ratio greater than 1 and less than 10) | B (A “B” value indicates an enhancement ratio from 10 to 20)
